The term Kd denotes the concentration at which binding is half-saturated. The low end stands for higher affinity, the high end for lower affinity.

Chain of human TYK2 (JH2domain-pseudokinase) (P29597 556-888): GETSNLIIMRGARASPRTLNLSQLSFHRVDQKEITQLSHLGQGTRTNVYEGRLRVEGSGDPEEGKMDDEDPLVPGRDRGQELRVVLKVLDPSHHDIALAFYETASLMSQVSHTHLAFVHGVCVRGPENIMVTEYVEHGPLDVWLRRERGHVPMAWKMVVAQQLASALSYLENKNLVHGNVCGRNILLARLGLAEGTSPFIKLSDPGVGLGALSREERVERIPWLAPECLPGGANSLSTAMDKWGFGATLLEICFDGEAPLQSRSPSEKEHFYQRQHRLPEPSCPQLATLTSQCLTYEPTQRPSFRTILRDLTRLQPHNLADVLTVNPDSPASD

The target in this test is human TYK2 (JH2domain-pseudokinase) (Homo sapiens (Human), UniProt P29597). Description: TYK2 JH2 Domain Binding Assay (KINOMEscan, DiscoveRx). As to conditions: 11-point dilution, duplicate. The procedure, abridged:
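TYK2 JH2 (G556–D888)–NFkB DBD fusion, DNA-tagged, from HEK293 extracts (<0.1 nM) competed against immobilised biotinylated ligand for 1 h at room temperature, 0.9% DMSO. Bead-retained kinase quantified by qPCR; Kd from 11-point 3-fold series (top 30,000 nM, duplicate), Hill fit with slope −1.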
In the case of `Cc1nc(-c2ccc(Nc3cc(Nc4cccc(C#N)n4)nc4[nH]c(C(F)F)nc34)c(S(C)(=O)=O)c2)sc1C` [I-507, 6-((2-(difluoromethyl)-7-((4-(4,5-dimethylthiazol-2-yl)-2-(methylsulfonyl)phenyl)amino)-3H-imidazo[4,5-b]pyridin-5-yl)amino)picolinonitrile], the Kd lay in the range of 1 to 10 nM.
With `Cc1nc2c(Nc3ccc(-c4cc(C)n(C)n4)cc3S(C)(=O)=O)cc(Nc3cnc(C)c(C)n3)nc2[nH]1` [I-508, N7-(4-(1,5-dimethyl-1H-pyrazol-3-yl)-2-(methylsulfonyl)phenyl)-N5-(5,6-dimethylpyrazin-2-yl)-2-methyl-3H-imidazo[4,5-b]pyridine-5,7-diamine] the figure was below 0.1 nM; with `Cc1cc(Nc2cc(Nc3ccc(-c4cc(C)n(C)n4)cc3S(C)(=O)=O)c3nc(C)[nH]c3n2)nc(C)n1` [I-509, N7-(4-(1,5-dimethyl-1H-pyrazol-3-yl)-2-(methylsulfonyl)phenyl)-N5-(2,6-dimethylpyrimidin-4-yl)-2-methyl-3H-imidazo[4,5-b]pyridine-5,7-diamine], below 0.1 nM.
For `Cc1cc(Nc2cc(Nc3ccc(-c4nn(C)cc4C)cc3S(C)(=O)=O)c3nc(C(F)F)[nH]c3n2)nc(C)n1` [I-510, 2-(difluoromethyl)-N7-(4-(1,4-dimethyl-1H-pyrazol-3-yl)-2-(methylsulfonyl)phenyl)-N5-(2,6-dimethylpyrimidin-4-yl)-3H-imidazo[4,5-b]pyridine-5,7-diamine] the value was below 0.1 nM.
Compound `Cc1cc(Nc2cc(Nc3ccc(-c4nn(C)cc4C)cc3S(C)(=O)=O)c3nc(C)[nH]c3n2)nc(C)n1` [I-511, N7-(4-(1,4-dimethyl-1H-pyrazol-3-yl)-2-(methylsulfonyl)phenyl)-N5-(2,6-dimethylpyrimidin-4-yl)-2-methyl-3H-imidazo[4,5-b]pyridine-5,7-diamine] came in with a Kd below 0.1 nM.
With `COCc1nc(-c2ccc(Nc3cc(NC(=O)C4CC4)nc4[nH]c(C)nc34)c(S(C)(=O)=O)c2)sc1C` [I-512, N-(7-((4-(4-(methoxymethyl)-5-methylthiazol-2-yl)-2-(methylsulfonyl)phenyl)amino)-2-methyl-3H-imidazo[4,5-b]pyridin-5-yl)cyclopropanecarboxamide] the figure was below 0.1 nM.
For `Cc1cnc(-c2ccc(Nc3cc(Nc4cccc(C#N)n4)nc4[nH]c(C(F)F)nc34)c(S(C)(=O)=O)c2)s1` [I-513, 6-((2-(difluoromethyl)-7-((2-(methylsulfonyl)-4-(5-methylthiazol-2-yl)phenyl)amino)-3H-imidazo[4,5-b]pyridin-5-yl)amino)picolinonitrile] the value was 0.5 to 1 nM; for `Cc1nc2c(Nc3ccc(-c4cc(C)n(C)n4)cc3S(C)(=O)=O)cc(Nc3cc4n(n3)CCOC4)nc2[nH]1` [I-514, N5-(6,7-dihydro-4H-pyrazolo[5,1-c][1,4]oxazin-2-yl)-N7-(4-(1,5-dimethyl-1H-pyrazol-3-yl)-2-(methylsulfonyl)phenyl)-2-methyl-3H-imidazo[4,5-b]pyridine-5,7-diamine], below 0.1 nM.
With `CS(=O)(=O)c1cc([C@H]2CCCCO2)ccc1Nc1cc(Nc2cc3n(n2)CCOC3)nc2[nH]c(C(F)F)nc12` [I-515, (R)-2-(difluoromethyl)-N5-(6,7-dihydro-4H-pyrazolo[5,1-c][1,4]oxazin-2-yl)-N7-(2-(methylsulfonyl)-4-(tetrahydro-2H-pyran-2-yl)phenyl)-3H-imidazo[4,5-b]pyridine-5,7-diamine] the figure was below 0.1 nM; with `CS(=O)(=O)c1cc([C@@H]2CCCCO2)ccc1Nc1cc(Nc2cc3n(n2)CCOC3)nc2[nH]c(C(F)F)nc12` [I-516, (S)-2-(difluoromethyl)-N5-(6,7-dihydro-4H-pyrazolo[5,1-c][1,4]oxazin-2-yl)-N7-(2-(methylsulfonyl)-4-(tetrahydro-2H-pyran-2-yl)phenyl)-3H-imidazo[4,5-b]pyridine-5,7-diamine], 0.1 to 0.5 nM.
Take `CS(=O)(=O)c1cc([C@H]2CCCCO2)ccc1Nc1cc(Nc2cccc(C(F)(F)F)n2)nc2[nH]c(C(F)F)nc12` [I-517, (R)-2-(difluoromethyl)-N7-(2-(methylsulfonyl)-4-(tetrahydro-2H-pyran-2-yl)phenyl)-N5-(6-(trifluoromethyl)pyridin-2-yl)-3H-imidazo[4,5-b]pyridine-5,7-diamine]: the Kd lay in the range of 0.5 to 1 nM.
As for `CS(=O)(=O)c1cc([C@@H]2CCCCO2)ccc1Nc1cc(Nc2cccc(C(F)(F)F)n2)nc2[nH]c(C(F)F)nc12` [I-518, (S)-2-(difluoromethyl)-N7-(2-(methylsulfonyl)-4-(tetrahydro-2H-pyran-2-yl)phenyl)-N5-(6-(trifluoromethyl)pyridin-2-yl)-3H-imidazo[4,5-b]pyridine-5,7-diamine], the Kd fell in the range of 1 to 10 nM.
For `Cc1cc(Nc2cc(Nc3ccc(-c4cc(C)n(C)n4)cc3S(C)(=O)=O)c3nc(C(F)F)[nH]c3n2)nc(C)n1` [I-519, 2-(difluoromethyl)-N7-(4-(1,5-dimethyl-1H-pyrazol-3-yl)-2-(methylsulfonyl)phenyl)-N5-(2,6-dimethylpyrimidin-4-yl)-3H-imidazo[4,5-b]pyridine-5,7-diamine] the value was 0.1 to 0.5 nM; for `COCc1ccc(Nc2cc(Nc3ccccc3S(C)(=O)=O)c3nc(C(F)F)[nH]c3n2)nn1` [I-520], 0.1 to 0.5 nM; for `COCc1ccc(Nc2cc(Nc3ccccc3S(C)(=O)=O)c3nc(C)[nH]c3n2)nn1` [I-521], below 0.1 nM.
For `CS(=O)(=O)c1cc(-c2ccn(C3CCOCC3)n2)ccc1Nc1cc(NC(=O)C2CC2)nc2[nH]c(C(F)F)nc12` [I-522] the value was 0.1 to 0.5 nM; for `Cc1nc2c(Nc3ccc(-c4ccn(C5CCOCC5)n4)cc3S(C)(=O)=O)cc(NC(=O)C3CC3)nc2[nH]1` [I-523], below 0.1 nM.
With `CCOc1ccc(Nc2cc(Nc3ccccc3S(C)(=O)=O)c3nc(C(F)F)[nH]c3n2)nc1C#N` [I-524] the figure was 0.1 to 0.5 nM; with `CCOc1ccc(Nc2cc(Nc3ccccc3S(C)(=O)=O)c3nc(C)[nH]c3n2)nc1C#N` [I-525], below 0.1 nM.
In the case of `Cc1cc(-c2ccc(Nc3cc(Nc4cc5n(n4)CCOC5)nc4[nH]c(C(F)F)nc34)c(S(C)(=O)=O)c2)nn1C` [I-526], the Kd is below 0.1 nM.
With `Cc1cc(Nc2cc(Nc3ccc(-c4ccn(C5CC5)n4)cc3S(C)(=O)=O)c3nc(C(F)F)[nH]c3n2)nc(C)n1` [I-527] the figure was 0.1 to 0.5 nM; with `Cc1cc(Nc2cc(Nc3ccc(-c4ccn(C5CC5)n4)cc3S(C)(=O)=O)c3nc(C)[nH]c3n2)nc(C)n1` [I-528], 0.1 to 0.5 nM.
For `Cc1cc(Nc2cc(Nc3ccc([C@H]4CCCCO4)cc3S(C)(=O)=O)c3nc(C)[nH]c3n2)nc(C)n1` [I-529] the value was below 0.1 nM; for `Cc1cc(Nc2cc(Nc3ccc([C@@H]4CCCCO4)cc3S(C)(=O)=O)c3nc(C)[nH]c3n2)nc(C)n1` [I-530], below 0.1 nM; for `CS(=O)(=O)c1ccccc1Nc1cc(Nc2ccc3c(n2)CCOC3)nc2[nH]c(C(F)F)nc12` [I-531], below 0.1 nM.
Regarding `Cc1nc2c(Nc3ccccc3S(C)(=O)=O)cc(Nc3ccc4c(n3)CCOC4)nc2[nH]1` [I-532], the Kd was below 0.1 nM.
With `Cc1c(-c2ccc(Nc3cc(Nc4ccc(C(C)C)c(C#N)n4)nc4[nH]c(C(F)F)nc34)c(S(C)(=O)=O)c2)cnn1C` [I-533] the figure was 0.1 to 0.5 nM; with `Cc1cc(C)c(-c2ccc(Nc3cc(NC(=O)C4CC4)nc4[nH]c(C(F)F)nc34)c(S(C)(=O)=O)c2)o1` [I-534], 1 to 10 nM.

(Values after US10647713B2 (Nimbus Lakshmi, Inc., priority 2016, dated 2020).)
